Results from patent US7977375B2, “Antibiotic and method of production thereof” (Helmholtz-Zentrum Für Infektionsforschung GmbH, priority 2004, dated 2011).
Values after ≈ are worked out from the molar mass of the structure shown.

Legend:
[1] = tested on: Candida albicans DSM 11225; assay: MIC / MBC in liquid culture; format: cell-based; conditions: DSM11225, read-out: MIC (minimal inhibitory concentration)
[2] = tested on: E. faecium VRAR E315; assay: agar diffusion method, inhibition zone; format: cell-based, Enterococcus faecium; conditions: Enterococcus faecium, VRARE315; E. faecium VRAR E315; MH agar, 18 hours at 37° C.; per disk 10 μl crude extract, 50 μg macrolactin, 78 μg erythromycin, 30 μg vancomycin, 10 μg ampicillin
Description: (§1) The agar diffusion method employing Mueller-Hinton (MH) agar (Difco Laboratories) was used to determine effectiveness against bacteria and yeasts. Sterile paper disks (Schleicher & Schüell, Germany) were seeded with 10 μl crude extract or with a solution of purified macrolactin (final compound concentration on the disk 50 μg) and then placed on the surface of MH-agar plates that had been seeded beforehand with a suspension of overnight culture of the test microorganisms at a concentration of 10^5 cells/ml.

[3] = tested on: E. faecalis VRAS E305; assay: MIC / MBC in liquid culture; format: cell-based, Enterococcus faecalis; conditions: E. faecalis VRAS E305
[4] = tested on: Burkholderia cepacia SCV 141; assay: kinetics of growth (FIG. 1F); format: cell-based; conditions: B. cepacia SCV 141; 32 μg/ml
Source text: • FIG. 1A y-axis: Log CFU (Colony Forming Units) Cells/ml • x-axis: Time (HRS) • FIG. 1B y-axis: Log CFU (Colony Forming Units) Cells/ml • x-axis: Time (HRS) • FIG. 1C: y-axis: Log CFU (Colony Forming Units) Cells/ml • x-axis: Time (HRS) • FIG. 1D: y-axis: Log CFU (Colony Forming Units) Cells/ml • x-axis: Time (HRS) • FIG. 1E: y-axis: Log CFU (Colony Forming Units) Cells/ml • x-axis: Time (HRS) • FIG. 1F: y-axis: Log CFU (Colony Forming Units) Cells/ml • x-axis: Time (HRS) • FIG. 5A: y-axis: % Inhibition • x-axis Concentration μg/ml • FIG. 5B: y-axis: % Inhibition • x-axis Concentration μg/ml

[5] = tested on: B. cepacia SCV 141; assay: MIC / MBC in liquid culture; format: cell-based, Burkholderia cepacia; conditions: Burkholderia cepacia
Source text: 7-O-malonyl macrolactin A was not effective against some of the gram-negative bacteria tested by the inventors.

[6] = tested on: Burkholderia cepacia SCV; assay: electron microscopy of cell division (FIG. 4); format: cell-based; conditions: 128 μg/ml, 4 hours shake culture
Description: FIG. 4 a) to c) are electron microscope photographs of Burkholderia cepacia SCV after 4 hours growth without antibiotic and d), e) and f) in the presence of 128 μg/ml 7-O-malonyl macrolactin A;
(§2) It is thought that 7-O-malonyl macrolactin A inhibits the division of bacterial cells, which interrupts the proliferation thereof.
The electron microscope photographs moreover elucidate the bacteriostatic effect of 7-O-malonyl macrolactin A against gram-negative bacteria, an example whereof is the cell division of Burkholderia cepacia. Thus, FIGS. 4a, b and c show Burkholderia cepacia SCV (clinical isolate) in a shake culture without the addition of antibiotic ingredients (control) and FIGS. 4d, e and f after 4 hours growth in a shake culture in the presence of 128 μg/ml 7-O-malonyl macrolactin A. In the control culture, white arrowheads point to the cell division planes and the transverse walls in connection therewith. In the case of the gram-negative cells treated with 7-O-malonyl macrolactin A, (FIGS. 4e and f) black arrows indicate the cell division planes and the unnatural protuberances.

[7] = tested on: MRSA 3 (methicillin-resistant S. aureus, clinical isolate); assay: agar diffusion method, inhibition zone; format: cell-based, Staphylococcus aureus; conditions: Staphylococcus aureus; MRSA 3; MH agar, 18 hours at 37° C.; per disk 10 μl crude extract, 50 μg macrolactin, 78 μg erythromycin, 30 μg vancomycin, 10 μg ampicillin
Description: as §1

[8] = tested on: S. aureus DSMZ 1104; assay: agar diffusion method, inhibition zone; format: cell-based, Staphylococcus aureus; conditions: Staphylococcus aureus, DSMZ1104; S. aureus DSMZ 1104; MH agar, 18 hours at 37° C.; per disk 10 μl crude extract, 50 μg macrolactin, 78 μg erythromycin, 30 μg vancomycin, 10 μg ampicillin
Description: as §1

[9] = tested on: MRSA 2 (methicillin-resistant S. aureus, clinical isolate); assay: agar diffusion method, inhibition zone; format: cell-based, Staphylococcus aureus; conditions: Staphylococcus aureus; MRSA 2; MH agar, 18 hours at 37° C.; per disk 10 μl crude extract, 50 μg macrolactin, 78 μg erythromycin, 30 μg vancomycin, 10 μg ampicillin
Description: as §1

[10] = tested on: S. aureus # (own collection, methicillin-sensitive control strain); assay: agar diffusion method, inhibition zone; format: cell-based, Staphylococcus aureus; conditions: Staphylococcus aureus; S. aureus # own collection; MH agar, 18 hours at 37° C.; per disk 10 μl crude extract, 50 μg macrolactin, 78 μg erythromycin, 30 μg vancomycin, 10 μg ampicillin
Description: as §1

[11] = tested on: Candida parapsilosis DSM5784; assay: MIC / MBC in liquid culture; format: cell-based; conditions: Lodderomyces parapsilosis, read-out: MIC (minimal inhibitory concentration)
[12] = tested on: S. aureus # (non-methicillin-resistant reference strain); assay: MIC / MBC in liquid culture; format: cell-based, Staphylococcus aureus; conditions: S. aureus #
[13] = tested on: E. faecium VRAR E315; assay: electron microscopy of cell division (FIG. 3); format: cell-based, Enterococcus faecium; conditions: 16 μg/ml, 4 hours
Description: FIG. 3 a) to c) are electron microscope photographs of E. faecium VRAR E315 after 4 hours growth without antibiotic and d), e) and f) in the presence of 16 μg/ml 7-O-malonyl macrolactin A;
as §2
The effect of 7-O-malonyl macrolactin A on cell division can also be observed from the electron microscope photographs of Enterococcus faecium (VRAR=vancomycin-resistant, ampicillin-resistant, E315, clinical isolate) shown in FIG. 3. The division planes of the untreated cells after 4 hours growth without antibiotic appear as light regions in FIGS. 3a), b) and c). […] In this example, however, no fully formed cell division planes are evident. The initiation of asymmetrical cell division is indicated by the small black arrowheads.

[14] = tested on: B. cepacia SCV 141; assay: agar diffusion method, inhibition zone; format: cell-based, Burkholderia cepacia; conditions: 18 hours at 37° C., per disk 10 μl crude extract, 50 μg macrolactin, 78 μg erythromycin, 10 μg ampicillin
Description: as §1
The B. cepacia strain used, which is a clinical isolate from a cystic fibrosis patient, forms small colonies (SCV 141).

With CC1CCC/C=C/C=C/C(O)CC(O)C/C=C\C=C\C(OC(=O)CC(=O)O)C/C=C/C=C\C(=O)O1 (centres unmarked) [7-O-malonyl macrolactin A] the MIC [1] was greater than 128 µg/mL, the zone of inhibition at 50 µg/disc [2] was 15 mm and the “MIC (minimal inhibitory concentration)” value [3] was greater than 128 µg/mL. For the same molecule, the MBC ([3]; Enterococcus faecalis, VRASE305, read-out: MBC (minimal bacteriostatic or fungistatic concentration)) was 0.06 µg/mL (≈ 0.123 µM), the MIC ([3]; Enterococcus faecalis, VRASE305, read-out: MIC (minimal inhibitory concentration)) was greater than 128 µg/mL and the “growth inhibited by a factor” value [4] was no more than 10. The MBC ([5]; SCV141, read-out: MBC (minimal bacteriostatic or fungistatic concentration)) was 32 µg/mL (≈ 65.5 µM), the MIC ([5]; SCV141, read-out: MIC (minimal inhibitory concentration)) was 128 µg/mL (≈ 262 µM) and the “effect on cell division, electron microscope” value [6] was “anomalously sized cells were also evident”. For the same molecule, the zone of inhibition at 50 µg/disc [7] was 41 mm, the zone of inhibition at 50 µg/disc [8] was 26 mm and the zone of inhibition at 50 µg/disc [9] was 40 mm. For the same molecule, the zone of inhibition at 50 µg/disc [10] was 30 mm, the MIC [11] was 128 µg/mL (≈ 262 µM) and the “MIC (minimal inhibitory concentration)” value [12] was greater than 128 µg/mL. For the same molecule, the MBC ([12]; Staphylococcus aureus, pronounced inhibition of growth, read-out: MBC (minimal bacteriostatic or fungistatic concentration)) was 1 µg/mL (≈ 2.05 µM), the MIC ([12]; Staphylococcus aureus, read-out: MIC (minimal inhibitory concentration)) was greater than 128 µg/mL and the “effect on cell division, electron microscope” value [13] was “anomalous, asymmetrical cell division is being initiated”. For the same molecule, the zone of inhibition at 50 µg/disc ([14]; Burkholderia cepacia, SCV141, MH agar) was 15 mm and the Inhibition zone ([14]; MH agar) was “produced an inhibition zone”.
